{"source": "patent US20070128217A1", "about": "(priority 2003, published 2007)", "key": {"[1]": {"system": "antibodies in sera from SARS patients (sera 1a, 1b, 2, 6, 37, 62, London, SARS-yellow, SARS-green)", "assay_type": "binding, human", "parameters": "Binding of serum 6 to linear peptides of protein X1 of SARS-CoV Urbani / Binding of serum 37 to linear peptides of protein X1 of SARS-CoV Urbani / Binding of serum 6 to looped/cyclic peptide (PEPSCAN-ELISA) / Binding of serum 37 to looped/cyclic peptide (PEPSCAN-ELISA) / Binding of serum 37 to looped/cyclic peptides of protein X1 of SARS-CoV Urbani / Binding of serum 6 to linear peptides of protein X2 / Binding of serum 37 to linear peptides of protein X2 / Binding of serum 37 to looped/cyclic peptides of protein X2 of SARS-CoV Urbani / Binding of serum 6 to linear peptides of protein M of SARS-CoV Urbani / Binding of serum 37 to linear peptides of protein M of SARS-CoV Urbani / Binding of serum 6 to looped/cyclic peptides of protein M of SARS-CoV Urbani / Binding of serum 37 to looped/cyclic peptides of protein M of SARS-CoV Urbani / Binding of serum 6 to linear peptides of protein X3 of SARS-CoV Urbani / Binding of serum 37 to linear peptides of protein X3 of SARS-CoV Urbani / Binding of serum 37 to looped/cyclic peptides of protein X3 of SARS-CoV Urbani / Binding of serum 6 to linear peptides of protein X4 of SARS-CoV Urbani / Binding of serum 37 to linear peptides of protein X4 of SARS-CoV Urbani / Binding of serum 37 to looped/cyclic peptides of protein X4 of SARS-CoV Urbani / Binding of serum 6 to linear peptides of protein X5 of SARS-CoV Urbani / Binding of serum 37 to linear peptides of protein X5 of SARS-CoV Urbani / Binding of serum 37 to looped/cyclic peptides of protein X5 of SARS-CoV Urbani / Binding of serum 6 to linear peptides of protein N of SARS-CoV Urbani / Binding of serum 37 to linear peptides of protein N of SARS-CoV Urbani / Binding of serum 6 to linear peptide (PEPSCAN-ELISA) / Binding of serum 1a to looped/cyclic peptides of protein N of SARS-CoV Urbani / Binding of serum 1b to looped/cyclic peptides of protein N of SARS-CoV Urbani / Binding of serum 2 to looped/cyclic peptides of protein N of SARS-CoV Urbani / Binding of serum 6 to looped/cyclic peptides of protein N of SARS-CoV Urbani / Binding of serum 37 to looped/cyclic peptides of protein N of SARS-CoV Urbani / Binding of serum 62 to looped/cyclic peptides of protein N of SARS-CoV Urbani / Binding of serum London to looped/cyclic peptides of protein N of SARS-CoV Urbani / Binding of serum SARS-green to looped/cyclic peptides of protein N of SARS-CoV Urbani: unit not given here"}, "[2]": {"system": "control sera (pooled serum of ten healthy LUMC hospital workers; commercial negative donor pooled serum from the Dutch bloodbank)", "assay_type": "binding, human", "parameters": "Binding of Control serum LUMC to linear peptides / Binding of Control serum Blood-bank to linear peptides / Binding of Control serum LUMC to looped peptides / Binding of Control Serum Blood-Bank to Looped peptides / Binding of Control serum LUMC to linear peptides of the protein M of SARS-CoV Urbani / Binding of Control serum Blood-bank to linear peptides of the protein M of SARS-CoV Urbani / Binding of Control serum LUMC to looped peptides of the protein M of SARS-CoV Urbani / Binding of Control Serum Blood-Bank to Looped peptides of the protein M of SARS-CoV Urbani: unit not given here"}, "[3]": {"system": "rabbit serum obtained by immunizing a rabbit with the SARS-CoV strain Frankfurt 1", "assay_type": "binding", "parameters": "Binding of a rabbit serum to linear peptides / Binding of a rabbit serum to looped peptides / Rabbit serum linear peptides / Rabbit serum looped peptides / Binding of a rabbit serum to linear peptides of protein N of SARS-CoV Urbani (Rabbit serum linear peptides) / Binding of a rabbit serum to looped/cyclic peptides of protein N of SARS-CoV Urbani (Rabbit serum looped peptides): unit not given here"}}, "data": [{"sequence": "AGGALIARCWYLHEG", "values": [{"measurement": "Binding of serum 1a to linear peptides of protein X5 of SARS-CoV Urbani", "setting": "[1]", "result": 0.8}, {"measurement": "Binding of serum 1a to looped/cyclic peptides of protein X5 of SARS-CoV Urbani", "setting": "[1]", "result": 0.7}, {"measurement": "Binding of serum 1b to linear peptides of protein X5 of SARS-CoV Urbani", "setting": "[1]", "result": 0.7}, {"measurement": "Binding of serum 1b to looped/cyclic peptides of protein X5 of SARS-CoV Urbani", "setting": "[1]", "result": 0.4}, {"measurement": "Binding of serum 2 to linear peptides of protein X5 of SARS-CoV Urbani", "setting": "[1]", "result": 0.5}, {"measurement": "Binding of serum 2 to looped/cyclic peptides of protein X5 of SARS-CoV Urbani", "setting": "[1]", "result": 0.5}, {"measurement": "Binding of serum 6 to linear peptides of protein X5 of SARS-CoV Urbani", "setting": "[1]", "result": 0.7}, {"measurement": "Binding of serum 6 to looped/cyclic peptides of protein X5 of SARS-CoV Urbani", "setting": "[1]", "result": 0.5}, {"measurement": "Binding of serum 37 to linear peptides of protein X5 of SARS-CoV Urbani", "setting": "[1]", "result": 0.8}, {"measurement": "Binding of serum 37 to looped/cyclic peptides of protein X5 of SARS-CoV Urbani", "setting": "[1]", "result": 0.6}, {"measurement": "Binding of serum 62 to linear peptides of protein X5 of SARS-CoV Urbani", "setting": "[1]", "result": 0.9}, {"measurement": "Binding of serum 62 to looped/cyclic peptides of protein X5 of SARS-CoV Urbani", "setting": "[1]", "result": 0.5}, {"measurement": "Binding of serum London to linear peptides of protein X5 of SARS-CoV Urbani", "setting": "[1]", "result": 0.7}, {"measurement": "Binding of serum London to looped/cyclic peptides of protein X5 of SARS-CoV Urbani", "setting": "[1]", "result": 0.2}, {"measurement": "Binding of serum SARS-green to linear peptides of protein X5 of SARS-CoV Urbani", "setting": "[1]", "result": 0.7}, {"measurement": "Binding of serum SARS-green to looped/cyclic peptides of protein X5 of SARS-CoV Urbani", "setting": "[1]", "result": 0.4}, {"measurement": "Binding of serum SARS-yellow to linear peptides of protein X5 of SARS-CoV Urbani", "setting": "[1]", "result": 0.5}, {"measurement": "Binding of serum SARS-yellow to looped/cyclic peptides of protein X5 of SARS-CoV Urbani", "setting": "[1]", "result": 0.4}, {"measurement": "Binding of Control Serum Blood-Bank to Looped peptides", "setting": "[2]", "result": 0.7}, {"measurement": "Binding of Control serum Blood-bank to linear peptides", "setting": "[2]", "result": 0.6}, {"measurement": "Binding of Control serum LUMC to linear peptides", "setting": "[2]", "result": 0.5}, {"measurement": "Binding of Control serum LUMC to looped peptides", "setting": "[2]", "result": 0.4}, {"measurement": "Rabbit serum linear peptides", "setting": "[3]", "result": 0.5}, {"measurement": "Rabbit serum looped peptides", "setting": "[3]", "result": 0.4}]}, {"sequence": "DVIISSIVRQLFKPL", "values": [{"measurement": "Binding of serum 1a to linear peptides of protein X3 of SARS-CoV Urbani", "setting": "[1]", "result": 0.7}, {"measurement": "Binding of serum 1a to looped/cyclic peptides of protein X3 of SARS-CoV Urbani", "setting": "[1]", "result": 0.6}, {"measurement": "Binding of serum 1b to linear peptides of protein X3 of SARS-CoV Urbani", "setting": "[1]", "result": 0.4}, {"measurement": "Binding of serum 1b to looped/cyclic peptides of protein X3 of SARS-CoV Urbani", "setting": "[1]", "result": 0.2}, {"measurement": "Binding of serum 2 to linear peptides of protein X3 of SARS-CoV Urbani", "setting": "[1]", "result": 0.5}, {"measurement": "Binding of serum 2 to looped/cyclic peptides of protein X3 of SARS-CoV Urbani", "setting": "[1]", "result": 0.5}, {"measurement": "Binding of serum 6 to linear peptides of protein X3 of SARS-CoV Urbani", "setting": "[1]", "result": 0.3}, {"measurement": "Binding of serum 6 to looped/cyclic peptides of protein X3 of SARS-CoV Urbani", "setting": "[1]", "result": 0.6}, {"measurement": "Binding of serum 37 to linear peptides of protein X3 of SARS-CoV Urbani", "setting": "[1]", "result": 0.6}, {"measurement": "Binding of serum 37 to looped/cyclic peptides of protein X3 of SARS-CoV Urbani", "setting": "[1]", "result": 0.5}, {"measurement": "Binding of serum 62 to linear peptides of protein X3 of SARS-CoV Urbani", "setting": "[1]", "result": 0.6}, {"measurement": "Binding of serum 62 to looped/cyclic peptides of protein X3 of SARS-CoV Urbani", "setting": "[1]", "result": 0.4}, {"measurement": "Binding of serum London to linear peptides of protein X3 of SARS-CoV Urbani", "setting": "[1]", "result": 0.6}, {"measurement": "Binding of serum London to looped/cyclic peptides of protein X3 of SARS-CoV Urbani", "setting": "[1]", "result": 0.6}, {"measurement": "Binding of serum SARS-green to linear peptides of protein X3 of SARS-CoV Urbani", "setting": "[1]", "result": 0.3}, {"measurement": "Binding of serum SARS-green to looped/cyclic peptides of protein X3 of SARS-CoV Urbani", "setting": "[1]", "result": 0.4}, {"measurement": "Binding of serum SARS-yellow to linear peptides of protein X3 of SARS-CoV Urbani", "setting": "[1]", "result": 0.2}, {"measurement": "Binding of serum SARS-yellow to looped/cyclic peptides of protein X3 of SARS-CoV Urbani", "setting": "[1]", "result": 0.5}, {"measurement": "Binding of Control Serum Blood-Bank to Looped peptides of the protein X3 of SARS-CoV Urbani", "setting": "[2]", "result": 0.5}, {"measurement": "Binding of Control serum Blood-bank to linear peptides of the protein X3 of SARS-CoV Urbani", "setting": "[2]", "result": 0.6}, {"measurement": "Binding of Control serum LUMC to linear peptides of the protein X3 of SARS-CoV Urbani", "setting": "[2]", "result": 0.4}, {"measurement": "Binding of Control serum LUMC to looped peptides of the protein X3 of SARS-CoV Urbani", "setting": "[2]", "result": 0.5}, {"measurement": "Rabbit serum linear peptides", "setting": "[3]", "result": 0.5}, {"measurement": "Rabbit serum looped peptides", "setting": "[3]", "result": 0.2}]}]}
